Test results from ChEMBL document CHEMBL5727581, “Triazole DAGLα inhibitors” (2020).

Columns and labels:
[1] = molecular target: T1, Diacylglycerol lipase-alpha (Homo sapiens, UniProt Q9Y4D2); test: (§1) In Vitro Inhibition of DAGL: Briefly, membrane proteome (1 mg/ml, 20 μL) was prepared from HEK293T cells (transiently transfected with hDAGLα-FLAG or hDAGLα-S472A-FLAG, hDAGLβ-FLAG or hDAGLβ-S443A-FLAG) as described in Example 16. The proteome was incubated at room temperature with vehicle (DMSO) or compound in 0.5 μL DMSO for 30 min. The membrane proteome sample was subsequently treated for 30 min with HT-01 probe (1 μM) or FP-Rh probe (1 μM). The reactions were quenched with 10 μL 3× Laemmli sample buffer (final concentrations: 60 mM Tris-Cl pH 6.8, 2% (w/v) SDS, 10% (v/v) glycerol, 5% (v/v) (3-mercaptoethanol, 0.01% (v/v) bromophenol blue). The samples were directly loaded and resolved on SDS page gel (10% acrylamide). The gels were scanned using a ChemiDoc MP system (Cy3 settings, 605/50 filter).The resolved proteins were transferred from the gels to a polyvinyldifluoride membrane for Western Blotting using a Trans-Blot® Turbo (BioRad). FLAG-tagged enzymes were stained using rabbit anti-FLAG as primary antibody, and goat-anti-rabbit HRP as secondary antibody. The blot was developed in the dark using a 10 mL luminal solution, 100 μL ECL enhancer and 3 μL H2O2. Chemiluminescence was visualized using a ChemiDoc XRS (BioRad).The percentage of DAGL activity remaining in the assayed samples was determined by measuring the integrated optical intensity of the fluorescent protein bands of the Western Blot using image lab 4.1. The relative intensity was compared to the vehicle (DMSO) treated proteins, which were set to 100%. IC50 values were determined by plotting a log(inhibitor) vs. normalized response (Variable slope) dose-response curve generated using Prism software (GraphPad).
T1 sequence (Q9Y4D2 whole entry): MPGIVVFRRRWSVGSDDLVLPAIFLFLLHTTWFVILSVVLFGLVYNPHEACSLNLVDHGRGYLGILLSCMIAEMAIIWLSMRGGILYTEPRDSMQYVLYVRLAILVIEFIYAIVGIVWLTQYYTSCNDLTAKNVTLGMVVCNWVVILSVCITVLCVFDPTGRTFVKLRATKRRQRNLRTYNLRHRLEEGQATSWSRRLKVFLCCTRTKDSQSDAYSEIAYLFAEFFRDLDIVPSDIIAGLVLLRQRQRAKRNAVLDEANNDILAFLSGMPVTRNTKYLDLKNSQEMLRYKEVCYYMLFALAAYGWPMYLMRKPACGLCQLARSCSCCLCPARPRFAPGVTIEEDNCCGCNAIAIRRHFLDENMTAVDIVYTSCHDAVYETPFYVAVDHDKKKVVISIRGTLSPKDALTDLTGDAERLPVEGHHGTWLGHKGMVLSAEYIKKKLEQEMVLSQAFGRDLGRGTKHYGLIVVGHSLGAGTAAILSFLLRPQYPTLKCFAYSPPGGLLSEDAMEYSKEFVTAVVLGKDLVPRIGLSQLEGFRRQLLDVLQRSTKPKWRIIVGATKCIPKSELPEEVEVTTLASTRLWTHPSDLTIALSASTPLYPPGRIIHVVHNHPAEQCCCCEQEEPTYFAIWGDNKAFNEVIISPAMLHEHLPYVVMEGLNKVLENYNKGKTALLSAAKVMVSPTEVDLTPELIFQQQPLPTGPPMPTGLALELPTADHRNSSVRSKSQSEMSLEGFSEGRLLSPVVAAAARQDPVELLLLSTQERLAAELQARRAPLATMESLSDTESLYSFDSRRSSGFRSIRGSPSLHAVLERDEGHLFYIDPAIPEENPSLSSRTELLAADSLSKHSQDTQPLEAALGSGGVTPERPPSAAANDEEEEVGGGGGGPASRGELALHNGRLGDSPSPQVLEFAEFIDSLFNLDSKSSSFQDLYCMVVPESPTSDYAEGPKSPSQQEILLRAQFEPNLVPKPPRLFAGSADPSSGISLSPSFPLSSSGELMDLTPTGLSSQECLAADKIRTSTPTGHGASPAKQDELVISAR

[2] = molecular target: T2, Diacylglycerol lipase-beta (Homo sapiens, UniProt Q8NCG7); test: as §1
T2 sequence (Q8NCG7 whole entry): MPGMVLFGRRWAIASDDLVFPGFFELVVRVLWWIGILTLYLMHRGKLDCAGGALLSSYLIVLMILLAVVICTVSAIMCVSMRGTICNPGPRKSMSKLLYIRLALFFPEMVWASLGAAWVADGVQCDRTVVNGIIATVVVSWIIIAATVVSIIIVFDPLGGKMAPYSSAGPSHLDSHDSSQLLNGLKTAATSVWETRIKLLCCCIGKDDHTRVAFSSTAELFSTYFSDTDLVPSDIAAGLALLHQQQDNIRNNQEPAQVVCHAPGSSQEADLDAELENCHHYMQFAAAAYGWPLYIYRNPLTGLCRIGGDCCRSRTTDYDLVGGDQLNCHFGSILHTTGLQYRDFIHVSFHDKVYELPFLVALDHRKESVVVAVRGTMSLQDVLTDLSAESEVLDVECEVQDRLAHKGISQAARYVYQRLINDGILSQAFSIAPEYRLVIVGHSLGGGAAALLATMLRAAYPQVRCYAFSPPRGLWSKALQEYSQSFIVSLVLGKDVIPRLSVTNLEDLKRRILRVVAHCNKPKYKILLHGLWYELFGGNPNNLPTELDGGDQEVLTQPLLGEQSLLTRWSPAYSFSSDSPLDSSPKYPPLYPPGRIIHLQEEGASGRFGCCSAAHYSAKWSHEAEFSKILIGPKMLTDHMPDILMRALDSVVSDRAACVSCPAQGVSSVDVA

| IC50 [1] [nM] | IC50 [2] [nM] | SMILES |
| --- | --- | --- |
| < 400 | < 400 | CCC(CC)CN(CCc1ccccc1)C(=O)n1cc(-c2ccc(OC(F)(F)F)cc2)nn1 |
| – | < 400 | CCC(CC)CN(CCc1ccccc1)C(=O)n1ncc(-c2ccc(OC(F)(F)F)cc2)n1 |
